Patent publication US20150265644A1, “THERAPEUTIC METHODS AND COMPOSITIONS FOR TREATING DIABETES UTILIZING DITERPENOID COMPOUNDS” (Orient Europharma Co., Ltd., priority 2014, published 2015)

Columns and labels:
liver = assay: Glycogen content in liver in vivo; set-up: species or system mice; settings: 10 mgkg^−1 i.p., 60 minutes
Procedure: The mice were injected with borapetoside A (10 mgkg^−1, interperitoneal) for 60 minutes or insulin (0.5 IUkg^−1, interperitoneal) for 30 minutes. After the treatment, the anesthetic mice were sacrificed by cervical dislocation to collect the soleus muscle and liver. About 40 mg of each sample was dissolved in 1 mol/L KOH at 75° C. for 30 min. The dissolved homogenate was neutralized by glacial acetic acid and then incubated overnight in acetate buffer (0.3 mol/L sodium acetate, pH 4.8) containing amyloglucosidase (Sigma, St. Louis, Mo.). The mixture was then neutralized with 1 mol/L NaOH to stop the reaction. The glycogen contents in the tissue samples were determined as μg of glucose per mg of tissue (wet weight).

PEPCK = assay: Western blot of liver, PEPCK expression; assay type: in vivo; settings: mice with type 1 DM, 10 mgkg^−1 i.p. twice a day for 7 days
Procedure: (§1) After three days of acclimatization, the mice had free access to a standard rodent chow (normal mice), a standard rodent chow after single 250 mgkg^−1 streptozotocin (STZ) intraperitoneal injection (TIDM mice), and a fat-rich chow diet and fructose-sweetened water (T2DM mice) for 4 weeks. The induction of Type 1 DM was assessed and confirmed when the mice had plasma glucose levels ≧350 mgdL^−1, accompanied with polyuria, hyperphagia and decreased body weight. The induction Type 2 DM in the mice was assessed by measuring fasting plasma glucose levels and confirmed when plasma glucose level was ≧150 mgdL^−1 after the 4-week induction. […]
(§2) Western blot analysis was carried out by known methods with a slight modification. […] After centrifuging the homogenates at 10,000 g for 30 minutes, the protein concentrations were determined by using a BCA Protein Assay Kit (Pierce Biotechnology, Rockford, Ill.). […] The membranes were analysed by using the antibodies against phospho-insulin receptor β (IRβ) (Tyr^1345), phospho-Akt (Ser^473), phosphor-AS160 (Thr^642), AS160 (Cell Signaling Technology, Beverly, Mass.), IRβ, Akt, β-Actin (Santa Cruz Biotechnology, Santa Cruz, Calif.), GLUT2 (Abcam, Cambridge, UK), and PEPCK (a gift from Professor D K Granner), respectively. […] The intensity of each band was quantified with ImageQuant.

GLUT2 = assay: Western blot of liver, GLUT2 expression; assay type: in vivo; settings: mice with type 1 DM, 10 mgkg^−1 i.p. twice a day for 7 days
Procedure: as §1, §2

C[C@@]12C[C@@H](c3ccoc3)OC(=O)[C@@H]1C[C@@H]1OC(=O)[C@@]3(O)[C@@H](O[C@@H]4O[C@H](CO)[C@@H](O)[C@H](O)[C@H]4O)CC[C@@H]2[C@@]13C [borapetoside A]
glycogen content in liver, % of vehicle control (liver; mice with type 1 DM): 196.9±15.6% | glycogen content in liver, % of vehicle control (liver; mice with type 2 DM): 146.1±12.0% | glycogen content in liver, % of vehicle control (liver; normal mice): 257.8±15.8% | PEPCK expression in liver (PEPCK): significant decrease | expression of GLUT2 in liver (GLUT2): increased
